Data: US11446287B2, “Compounds and methods for EP300 or CBP modulation and indications therefor” (Opna Immuno-Oncology SA, priority 2019, dated 2022)

target: T1, Recombinant human BRD4 containing dual bromodomains (BRD4-BD12 (1-477)) (Homo sapiens, UniProt O60885); experiment: BRD4 Alphascreen binding assay
T1 construct: Recombinant human BRD4 containing dual bromodomains (BRD4-BD12 (1-477)); made in house; host or cells: E. coli BL21-CodonPlus (DE3), modified pET vector
How it was run: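 His-tagged human BRD4 tandem bromodomains (1-477, E. coli) incubated 1 h at room temperature with biotinylated tetra-acetylated H4 (1-21) peptide and compound in HEPES pH 7.5 buffer with 2 mM DTT. AlphaScreen signal read 30 min after adding beads (7.5 μg/ml); IC50 from four-parameter fit after normalization to controls.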

Structure (SMILES)	IC50
Cc1noc(C)c1-c1cnc2c(c1)c(-c1c(F)cc(C(=O)O)cc1OC(F)(F)F)cn2C(C1CC1)C1CC1 [P-0230, 4-(1-(dicyclopropylmethyl)-5-(3,5-dimethylisoxazol-4-yl)-1H-pyrrolo[2,3-b]pyridin-3-yl)-3-fluoro-5-(trifluoromethoxy)benzoic acid]	1 to 8 µM
Cc1ccccc1-n1cc(-c2ccc(C(=O)O)cc2OC(F)(F)F)c2cc(-c3c(C)noc3C)cnc21 [P-0231, 4-(5-(3,5-dimethylisoxazol-4-yl)-1-(o-tolyl)-1H-pyrrolo[2,3-b]pyridin-3-yl)-3-(trifluoromethoxy)benzoic acid]	8 to 1000 µM
Cc1noc(C)c1-c1cnc2c(c1)c(-c1ccc(C(=O)O)cc1OC(F)(F)F)cn2-c1ccc(F)cc1F [P-0232, 4-(1-(2,4-difluorophenyl)-5-(3,5-dimethylisoxazol-4-yl)-1H-pyrrolo[2,3-b]pyridin-3-yl)-3-(trifluoromethoxy)benzoic acid]	1 to 8 µM
Cc1noc(C)c1-c1cnc2c(c1)c(-c1ccc(C(=O)O)cc1OC(F)(F)F)cn2-c1cc(F)ccc1F [P-0233, 4-(1-(2,5-difluorophenyl)-5-(3,5-dimethylisoxazol-4-yl)-1H-pyrrolo[2,3-b]pyridin-3-yl)-3-(trifluoromethoxy)benzoic acid]	1 to 8 µM
Cc1noc(C)c1-c1cnc2c(-c3ccc(C(=O)O)cc3F)c(C(F)(F)F)n([C@@H](C)c3ccccn3)c2c1 [P-0234, (S)-4-(6-(3,5-dimethylisoxazol-4-yl)-1-(1-(pyridin-2-yl)ethyl)-2-(trifluoromethyl)-1H-pyrrolo[3,2-b]pyridin-3-yl)-3-fluorobenzoic acid]	1 to 8 µM
Cc1cc(C(=O)O)ccc1-c1c(C(F)(F)F)n([C@@H](C)c2ccccn2)c2cc(-c3c(C)noc3C)cnc12 [P-0235, (S)-4-(6-(3,5-dimethylisoxazol-4-yl)-1-(1-(pyridin-2-yl)ethyl)-2-(trifluoromethyl)-1H-pyrrolo[3,2-b]pyridin-3-yl)-3-methylbenzoic acid]	8 to 1000 µM
COc1cc(C(=O)O)ccc1-c1c(C(F)(F)F)n([C@@H](C)c2ccccn2)c2cc(-c3c(C)noc3C)cnc12 [P-0236, (S)-4-(6-(3,5-dimethylisoxazol-4-yl)-1-(1-(pyridin-2-yl)ethyl)-2-(trifluoromethyl)-1H-pyrrolo[3,2-b]pyridin-3-yl)-3-methoxybenzoic acid]	1 to 8 µM
Cc1noc(C)c1-c1cnc2c(-c3cn(C)nc3C3CC3)c(C(F)(F)F)n([C@@H](C)c3ccccn3)c2c1 [P-0237, (S)-4-(3-(3-cyclopropyl-1-methyl-1H-pyrazol-4-yl)-1-(1-(pyridin-2-yl)ethyl)-2-(trifluoromethyl)-1H-pyrrolo[3,2-b]pyridin-6-yl)-3,5-dimethylisoxazole]	1 to 8 µM
Cc1noc(C)c1-c1cnc2c(-c3cc(C(=O)O)ccc3F)c(C(F)(F)F)n([C@@H](C)c3ccccn3)c2c1 [P-0238, (S)-3-(6-(3,5-dimethylisoxazol-4-yl)-1-(1-(pyridin-2-yl)ethyl)-2-(trifluoromethyl)-1H-pyrrolo[3,2-b]pyridin-3-yl)-4-fluorobenzoic acid]	1 to 8 µM
COc1ccc(C(=O)O)cc1-c1c(C(F)(F)F)n([C@@H](C)c2ccccn2)c2cc(-c3c(C)noc3C)cnc12 [P-0239, (S)-3-(6-(3,5-dimethylisoxazol-4-yl)-1-(1-(pyridin-2-yl)ethyl)-2-(trifluoromethyl)-1H-pyrrolo[3,2-b]pyridin-3-yl)-4-methoxybenzoic acid]	8 to 1000 µM
Cc1noc(C)c1-c1cnc2c(-c3cc(F)cc(C(=O)O)c3)c(C(F)(F)F)n([C@@H](C)c3ccccn3)c2c1 [P-0240, (S)-3-(6-(3,5-dimethylisoxazol-4-yl)-1-(1-(pyridin-2-yl)ethyl)-2-(trifluoromethyl)-1H-pyrrolo[3,2-b]pyridin-3-yl)-5-fluorobenzoic acid]	8 to 1000 µM
Cc1noc(C)c1-c1cnc2c(-c3cc(Cl)cc(C(=O)O)c3)c(C(F)(F)F)n([C@@H](C)c3ccccn3)c2c1 [P-0241, (S)-3-chloro-5-(6-(3,5-dimethylisoxazol-4-yl)-1-(1-(pyridin-2-yl)ethyl)-2-(trifluoromethyl)-1H-pyrrolo[3,2-b]pyridin-3-yl)benzoic acid]	8 to 1000 µM
Cc1noc(C)c1-c1cnc2c(-c3ccc(C(=O)O)c(F)c3)c(C(F)(F)F)n([C@@H](C)c3ccccn3)c2c1 [P-0242, (S)-4-(6-(3,5-dimethylisoxazol-4-yl)-1-(1-(pyridin-2-yl)ethyl)-2-(trifluoromethyl)-1H-pyrrolo[3,2-b]pyridin-3-yl)-2-fluorobenzoic acid]	8 to 1000 µM
